Measurements from US20090088380A1, “GHRH ANALOGS AND THERAPEUTIC USES THEREOF” (priority 2007, published 2009).
Blank lines part the entries; values can stand above or below the molecule they belong to. Non-standard residues stand in square brackets, D forms with d. Residues, ends and D or L forms follow the SMILES beside them.

How the values were obtained:
[1] = target: T1, hGHRH(1-44)-NH2 binding sites in rat anterior pituitary (Rattus norvegicus, UniProt Q02644); assay: Relative binding affinity in rat anterior pituitary preparations, [125I-Tyr10]hGHRH(1-44)-NH2 radioligand; conditions: values compared to hGHRH(1-29)-NH2
T1 construct: from tissue; host or cells: anterior pituitary of 2-month old male Sprague Dawley rats
T1 sequence (Q02644 23-423 isoform Q02644-2 limits assumed): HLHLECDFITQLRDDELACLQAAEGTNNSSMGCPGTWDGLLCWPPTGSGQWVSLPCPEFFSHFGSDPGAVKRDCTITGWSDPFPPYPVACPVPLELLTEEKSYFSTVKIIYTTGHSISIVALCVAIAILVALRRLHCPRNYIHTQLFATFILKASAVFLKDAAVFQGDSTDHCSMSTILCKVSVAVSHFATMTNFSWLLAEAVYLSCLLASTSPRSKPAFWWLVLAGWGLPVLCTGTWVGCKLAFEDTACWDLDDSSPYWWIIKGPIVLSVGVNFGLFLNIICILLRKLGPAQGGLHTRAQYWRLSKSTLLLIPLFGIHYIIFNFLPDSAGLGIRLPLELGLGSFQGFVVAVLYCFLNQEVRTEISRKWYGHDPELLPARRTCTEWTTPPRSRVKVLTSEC
Excerpt: Initial selection of a candidate from the original 14 polysubstituted GHRH analogs described in the U.S. Pat. No. 5,854,216 was based upon in vitro data on receptor affinity in 2-month old male Sprague Dawley rat anterior pituitary preparations. The embodiments are based on the affinity of selected GHRH analogs for the human GHRH receptor (hGHRH-R) in baby hamster kidney (BHK) cells transfected with hGHRH-R, and on resistance to proteolysis in rat serum, human plasma or human serum. More precisely, the preferred drug candidates were selected, as compared to hGHRH(1-29)-NH2, for: i-their increased relative binding affinity to hGHRH(1-44)-NH2 binding sites in rat anterior pituitary in vitro as well as to hGHRH-R in BHK-expressing cells in vitro; and ii-their relative resistance to proteolysis in vitro.

human GHRH receptor = target: T2, human GHRH receptor (Homo sapiens, UniProt Q02643); assay: 125I-GHRH competitive binding assay in BHK cell membrane preparations; conditions: in comparison with hGHRH(1-29)NH2; ratio IC50 hGHRH(1-29)-NH2/IC50 analog
T2 construct: expressed in transfected cells; host or cells: BHK (baby hamster kidney) 570 cells, membrane preparations
T2 sequence (Q02643 23-423): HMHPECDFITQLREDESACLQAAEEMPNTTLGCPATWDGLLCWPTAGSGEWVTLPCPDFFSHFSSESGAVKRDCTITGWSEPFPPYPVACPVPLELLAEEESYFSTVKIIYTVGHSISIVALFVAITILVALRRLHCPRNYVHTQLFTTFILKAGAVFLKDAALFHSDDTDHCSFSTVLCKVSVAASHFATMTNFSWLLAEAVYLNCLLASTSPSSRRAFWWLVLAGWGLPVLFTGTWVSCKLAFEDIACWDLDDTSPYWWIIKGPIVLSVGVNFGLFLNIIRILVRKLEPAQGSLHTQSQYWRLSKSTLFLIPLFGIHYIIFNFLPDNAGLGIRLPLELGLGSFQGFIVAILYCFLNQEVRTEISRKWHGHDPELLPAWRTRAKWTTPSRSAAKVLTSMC
Method: Non specific binding was determined in presence of 1 μM hGHRH(1-29)NH2. Incubation was carried out at equilibrium (23° C., 60 min) and stopped by centrifugation (12,000 g, 5 min, at 4° C.). The radioactivity content in pellets was determined by gamma counting. The affinity of hGHRH(1-29) NH2 was tested in each experiment to assess the validity of the assay and determine the relative affinity of the analogs.
Values represent the mean±SEM of 3 experiments performed in triplicate for the analogs and the mean±SEM of 2 experiments performed in triplicate for hGHRH(1-44) NH2.
For the binding assay results presented in Tables 8 to 11, values represent the mean±SEM of 8 independent experiments performed in triplicate for the analogs and the mean±SEM of 4 experiments performed in triplicate for hGHRH(1-29)NH2. […] The relative affinity was obtained by taking the ratio IC50 of hGHRH (1-29)-NH2/IC50 analog.

[2] = In vitro proteolysis assay in rat serum; format: in vitro ADME; conditions: for Residual concentration (% of initial concentration): incubation 0 min
Method: (§1) Proteolysis was stopped by adding 800 μl of ice-cold stop buffer (potassium-phosphate buffer, acidified to pH 0.8 with trifluoroacetic acid (TFA) and boiling 5 min (rat serum only). After centrifugation (12000 g, 5 min, 4° C.) (rat serum only), serum-peptide mixtures were passed through a conditioned Sep-Pak C-18 cartridge to extract native GHRH or a GHRH analog residual concentrations from serum proteins. The native GHRH or the analog was eluted in 2 ml of 50% acetonitrile-0.01% TFA/50% 0.01% aqueous TFA. 200 μl of extracted peptide, representing 1 μg of GHRH or analog at time 0, was quantified by analytical HPLC, using one μ-Bondapak C18 column (10 μm particle size, 0.39×15 cm) (rat serum) or two C18 columns in series (human serum and plasma) and a binary solvent system composed of NaClO4 0.01 M, pH 2.5 and acetonitrile. A linear gradient from 30 to 60% acetonitrile over 45 min (rat serum) or 30 to 50% (human serum and plasma) was used. Elution of intact peptide was monitored at 214 nm and residual concentration determined by assessment of peak surface areas.

[3] = In vitro proteolysis assay in human serum; format: in vitro ADME; conditions: human serum
Method: as §1

rat GHRH receptor (rat) = rat GHRH receptor (rat) (UniProt Q02644); assay: competition with [125I-Tyr10]hGHRH(1-44)-NH2, rat anterior pituitary membrane preparations
[4] = target: human GHRH receptor (human) (UniProt Q02643); assay: competition with [125I-Tyr10]hGHRH(1-44)NH2, BHK cell membrane preparations expressing the human GHRH receptor; conditions: for Relative binding affinity (R1) in comparison with hGHRH(1-29)NH2: scale: ratio IC50 of hGHRH
Rat Growth Hormone = assay: In vivo GH secretion in adult female Sprague-Dawley rats, single SC or IV injection, RIA; conditions: 0.03 mg/kg BW IV
Method: In order to assess such use of the GHRH analogs, the following experiments were undertaken. More specially, the goal was to assess the pharmacodynamic and pharmacokinetic profiles and acute toxicity of GHRH analog #5 when administered once by subcutaneous or intravenous injection to female Sprague-Dawley rats followed by a 14-day observation period and the pharmacodynamic profile in a male Beagle dog when the GHRH analog was administered at escalating doses to the same dog by subcutaneous injection with at least 2-day washout period. The above GHRH analog is a variation of a synthetic acetate salt of an amidated synthetic 29-amino acid peptide that corresponds to the amino-terminal segment of the naturally-occurring human growth hormone—releasing hormone (GHRH) with four amino acid substitutions in positions 2, 10, 15, and 22.
Human GHRH analog #5 in 0.9% sodium chloride for injection USP was administered once either by intravenous (IV) or subcutaneous (SC) injection to female rats followed by a 14-day observation period, as shown in Table 2. Prior to administration, all dosing formulations were filtered using a 0.22 μm filter to ensure sterility. The actual amount of GHRH analog #5 administered was calculated and adjusted based on the animal's most recent body weight. Dosing started at approximately the same time each day, commencing at 9:00 am ±30 minutes.
For pharmacodynamic investigations, blood samples (approximately 1.3 ml) were collected from 2 animals per group per time point (maximum 3 time points/animal) via a jugular venipuncture at the following time points: […] All blood samples were collected into potassium EDTA tubes and centrifuged under refrigeration (2 to 8° C., 1500 g for 10 minutes).
Rat Growth Hormone Determination • Plasma GH was determined by Linco Diagnostic Services using their own kit. Linco's Rat Growth Hormone radioimmunoassay kit (RIA) (RGH-45HK) is intended for the quantitative determination of Rat Growth Hormone in serum, plasma, and tissue culture media. It is a completely homologous assay since the antibody was raised against recombinant Rat Growth Hormone and both the tracer and the standard are prepared with the same recombinant Rat Growth Hormone. The kit includes standards, antibody, tracer, quality controls, precipitating reagents and buffer necessary to complete a RIA. The assay was conducted under the following conditions: overnight; equilibrium incubation at room temperature; sample volume: 100 μl serum, plasma, or cell culture media. The label used was 125I-Rat Growth Hormone (20,000 CPM/tube).

Canine Growth Hormone = assay: In vivo GH secretion in a male Beagle dog, escalating SC doses, RIA; conditions: 0.01 mg/kg BW SC
Excerpt: In order to assess such use of the GHRH analogs, the following experiments were undertaken. […] The above GHRH analog is a variation of a synthetic acetate salt of an amidated synthetic 29-amino acid peptide that corresponds to the amino-terminal segment of the naturally-occurring human growth hormone—releasing hormone (GHRH) with four amino acid substitutions in positions 2, 10, 15, and 22.
Prior to administration, all dosing formulations were filtered using a 0.22 μm filter to ensure sterility. […] Dosing started at approximately the same time each day, commencing at 9:00 am ±30 minutes.
For pharmacodynamic investigations, blood samples (approximately 1.0 ml) were collected from the dog on each treatment day via a jugular venipuncture at the following time points: pre-dose, 7, 15, 22, 30, 45, and 60 minutes post dosing. All blood samples were collected into potassium EDTA tubes and centrifuged under refrigeration (2 to 8° C., 1500 g for 10 minutes).
Plasma GH was determined by Linco Diagnostic Services using their own kit. Linco's Porcine/Canine Growth Hormone radioimmunoassay kit (RIA) (PGH-46HK) has been developed to quantitate Growth Hormone in plasma, serum, and tissue culture media. It is a completely homologous assay since the antibody was raised against recombinant Porcine Growth Hormone and both the standard and tracer are prepared with recombinant Porcine Growth Hormone. Since the amino acid sequences of Porcine Growth Hormone and Canine Growth Hormone are identical, this assay developed for Porcine Growth Hormone measures Canine Growth Hormone levels with equal efficiency. All components are included (standards, antibody, tracer, quality controls, precipitating reagents and buffer) necessary to complete a RIA. The assay was conducted under the following conditions: overnight; equilibrium incubation at room temperature; sample volume: 100 μl serum, plasma, or cell culture media.

Molecule: CC[C@H](C)[C@H](NC(=O)[C@H](C)NC(=O)[C@H](CC(=O)O)NC(=O)[C@@H](C)NC(=O)[C@@H](N)Cc1ccc(O)cc1)C(=O)N[C@@H](Cc1ccccc1)C(=O)N[C@H](C(=O)N[C@@H](C)C(=O)N[C@@H](CO)C(=O)N[C@@H](Cc1ccc(O)cc1)C(=O)N[C@@H](CCCNC(=N)N)C(=O)N[C@@H](CCCCN)C(=O)N[C@H](C(=O)N[C@@H](CC(C)C)C(=O)N[C@@H](C)C(=O)N[C@@H](CCC(N)=O)C(=O)N[C@@H](CC(C)C)C(=O)N[C@@H](CO)C(=O)N[C@@H](C)C(=O)N[C@@H](CCCNC(=N)N)C(=O)N[C@@H](CCCCN)C(=O)N[C@@H](CCCCN)C(=O)N[C@@H](CC(C)C)C(=O)N[C@@H](CCC(N)=O)C(=O)N[C@@H](CC(=O)O)C(=O)N[C@H](C(=O)N[C@@H](CCSC)C(=O)N[C@@H](CO)C(=O)N[C@@H](CCCNC(=N)N)C(N)=O)[C@@H](C)CC)C(C)C)[C@@H](C)O [GHRH analog #1, [D-Ala^2, Ala^8, Ala^15, Lys^22] hGHRH(1-29)-NH2] (H-Y[dA]DAIFTASYRKVLAQLSARKKLQDIMSR-NH2; N-terminus assumed)
- Relative binding affinity in rat anterior pituitary [1]: 13.33 ± 0.31
- Relative binding affinity (R1) in hGHRH-R BHK-expressing cells (human GHRH receptor): 499 ± 234
- Relative resistance to proteolysis in vitro ([2]; compared to hGHRH(1-29)-NH2): 1.87
- Residual concentration (% of initial concentration) [2]: 100 ± 0 % of initial concentration

Molecule: [Ala8, Ala9, Ala15, Ala22] hGHRH(1-29)-NH2 (peptide)
- Relative binding affinity in rat anterior pituitary (relative to hGHRH(1-29)-NH2) (rat GHRH receptor (rat)): 7.74
- IC50 [4]: 0.77 nM
- Relative binding affinity (R1) in comparison with hGHRH(1-29)NH2 [4]: 3.7

Molecule: [D-Ala2, D-Tyr10, Lys22] hGHRH(1-29)-NH2 (peptide)
- Relative binding affinity in rat anterior pituitary (relative to hGHRH(1-29)-NH2) (rat GHRH receptor (rat)): 4.9
- IC50 [4]: 0.0063 nM
- Relative binding affinity (R1) in comparison with hGHRH(1-29)NH2 [4]: 239

Molecule: hGHRH(1-44)NH2 [reference compound]
- Plasma Rat Growth Hormone (Rat Growth Hormone; 4 min): 43.7 ng/mL
- Plasma Rat Growth Hormone (Rat Growth Hormone; 10 min): 83.9 ng/mL
- Plasma Rat Growth Hormone (Rat Growth Hormone; 15 min): 27.9 ng/mL
- Plasma Rat Growth Hormone (Rat Growth Hormone; 45 min): 14.1 ng/mL
- Plasma Rat Growth Hormone (Rat Growth Hormone; 300 min): 21.7 ng/mL
- GH AUC 45 min (Rat Growth Hormone; in ng·min/mL (unit assumed)): 1380
- GH AUC 300 min (Rat Growth Hormone; in ng·min/mL (unit assumed)): 5754
- Plasma Rat Growth Hormone (Rat Growth Hormone; −120 min): 20.2 ng/mL
- Canine Growth Hormone (Canine Growth Hormone; 0 min): 5 ng/mL
- Canine Growth Hormone (Canine Growth Hormone; 7 min): 1 ng/mL
- Canine Growth Hormone (Canine Growth Hormone; 15 min): 1.99 ng/mL
- Canine Growth Hormone (Canine Growth Hormone; 22 min): 4 ng/mL
- Canine Growth Hormone (Canine Growth Hormone; 30 min): 5 ng/mL
- Canine Growth Hormone (Canine Growth Hormone; 45 min): 3 ng/mL
- Canine Growth Hormone (Canine Growth Hormone; 60 min): 1.99 ng/mL

Results, then the molecule that gave them:

- Residual concentration (% of initial concentration) [2]: 100 ± 0 % of initial concentration
- Mean residual amount (%) ([3]; IT 0 min): 100%
- Mean residual amount (%) ([3]; IT 420 min): disappeared totally
Molecule: CC[C@H](C)[C@H](NC(=O)[C@H](C)NC(=O)[C@H](CC(=O)O)NC(=O)[C@H](C)NC(=O)[C@@H](N)Cc1ccc(O)cc1)C(=O)N[C@@H](Cc1ccccc1)C(=O)N[C@H](C(=O)N[C@@H](CC(N)=O)C(=O)N[C@@H](CO)C(=O)N[C@@H](Cc1ccc(O)cc1)C(=O)N[C@@H](CCCNC(=N)N)C(=O)N[C@@H](CCCCN)C(=O)N[C@H](C(=O)N[C@@H](CC(C)C)C(=O)NCC(=O)N[C@@H](CCC(N)=O)C(=O)N[C@@H](CC(C)C)C(=O)N[C@@H](CO)C(=O)N[C@@H](C)C(=O)N[C@@H](CCCNC(=N)N)C(=O)N[C@@H](CCCCN)C(=O)N[C@@H](CC(C)C)C(=O)N[C@@H](CC(C)C)C(=O)N[C@@H](CCC(N)=O)C(=O)N[C@@H](CC(=O)O)C(=O)N[C@H](C(=O)N[C@@H](CCSC)C(=O)N[C@@H](CO)C(=O)N[C@@H](CCCNC(=N)N)C(N)=O)[C@@H](C)CC)C(C)C)[C@@H](C)O [hGHRH(1-29)NH2, reference compound]

- Relative binding affinity in rat anterior pituitary (relative to hGHRH(1-29)-NH2) (rat GHRH receptor (rat)): 13.3
- IC50 [4]: 0.033 nM
- Relative binding affinity (R1) in comparison with hGHRH(1-29)NH2 [4]: 499
Molecule: [D-Ala2, Ala8, Ala15, Lys22] hGHRH(1-29)-NH2 (peptide)

- Relative binding affinity in rat anterior pituitary (relative to hGHRH(1-29)-NH2) (rat GHRH receptor (rat)): 5
- IC50 [4]: 37 nM
- Relative binding affinity (R1) in comparison with hGHRH(1-29)NH2 [4]: 0.05
Molecule: [D-Ala2, Ala8, D-Tyr10, Ala15, D-Lys21, Lys22] hGHRH(1-29)-NH2 (peptide)
